How the values were obtained:
[1] = system: esterase from swine liver [EC3.1.1.1]; experiment: In vitro evaluation of esterase activity on Gd-1 particles (turbidity, water proton relaxation rate R1); format: biochemical
Description: (§1) The activity of two different enzymes (esterase from swine liver [EC3.1.1.1] and lipase from Chromobacterium viscosum [EC 3.1.1.34]) was evaluated on Gd-1 particles.
(§2) This behaviour was confirmed by measurements of the water protons relaxation rate (R1) on a NMR spectrometer (Stelar Spinmaster) operating at 0.5T and 298K.
(§3) In the presence of the esterase (2 mg) R1 rapidly rises and after 2-3 hours reaches the value expected for a soluble Gd(III) complex resulting from the hydrolysis of the ester bonds of the Gd-1 complex. The differences in the two observed curves, and therefore the different reaction kinetics, can be ascribed to the different amounts of active units per mg of the two enzymes added to the Gd complex suspension.

neutrophiles = experiment: Labelling of neutrophiles with sonicated Gd-1 particles; format: cell-based; conditions: ca. […]10^6 neutrophiles, 0.4 mg particles, 37° C.
Description: One of the applications for labelled cells deals with the identification of infection loci in patients affected by fever of unknown origin. This imply the labelling of Neutrophiles obtained from the standard procedures from a specimen of blood drawn from the patient. After labelling the neutrophiles have to be re-injected in the patient who is subjected to MRI examination.
The labelling of neutrophiles (ca. 2.5×10^6) has been carried out by incubating them (5 ml) in a medium containing 0.4 mg of particles of Gd-1 prepared according to example 5.
After 2.5 h of incubation at 37° C., the cells were harvested, whashed several times with PBS, then analyzed. The content of Gd per mg protein is 8.8×10^−8 moles, i.e. an amount that after the intracellular degradation of the particle, is well sufficient to allow the visualization of the labelled cells by MRI techniques.

macrophages esterase = experiment: Macrophage lysate esterase on Gd-1 (R1 increase); format: biochemical; conditions: about 4×10^6 macrophages lysed by sonication, about 1 mg Gd-1
Description: Afterwards, the macrophages esterase was tested. For this purpose, about 4×10^6 macrophages were subjected to lysis by sonication and about 1 mg Gd-1 was added to the lysate. The enzyme present in the cellular lysate rapidly cleaves the hydrophobic ester groups, thus releasing the soluble Gd complex. The formation of soluble Gd complex is well followed by the increase of water proton relaxation rate (FIG. 2). After about two hours the enzymatic reaction reaches the steady state.

U937 cells = experiment: Internalization assay of sonicated Gd-1 particles with U937 cells endowed with macrophagic activity; format: cell-based; conditions: 0.2 mg Gd-1 in medium, ca. 4 hours incubation
Description: The particles obtained by the sonication procedure described in example 5 has been tested in an internalization assay with the U937 cells endowed with macrophagic activity. The incubation medium contains 0.2 mg of Gd-1 (total). After ca. 4 hours of incubation the amount of Gd internalized reached a maximum value of 2×10^−8 moles/mg of protein. This means that ca 10% is taken up by the cells. Such amount is well sufficient to allow the visualisation of these cells. Once the enzymatic degradation process proceeds the signal intensity progressively increases to reach a steady state which lasts for a time long enough for the type of applications of this protocol.

[2] = system: U937 monocytes differentiated to macrophages; experiment: Intracellular esterase activity on Gd-1 in intact cells; format: cell-based
Description: An experiment for evaluating the enzymatic activity inside intact cells was set up, using Gd-1 particles as probes. For this purpose, different capsules containing about 2×10^6 cells (U937 monocytes differentiated to macrophages as described above) were incubated with ca. 5 mg of Gd-1 particles suspended in 5 mL medium (RPMI) for four hours at 37° C. After this period the cells were washed three times with PBS, covered with further 5 ml RPMI and re-incubated for different times at 37° C. In this way it was possible to isolate the contribution deriving from the esterase-catalysed hydrolysis of Gd-1 particles for the time interval that […] the internalisation step. The proton relaxation rate was measured at successive time intervals (0.5, 1, 2 hours). After 4 hours incubation in the presence of Gd-1 particles the cells internalise about 60 nmol complex, but only 50% of the internalised particles is hydrolysed in this time and contributes to the total relaxivity. In fact, the relaxivity of the cytosolic extract is 2.5 when the cells are resuspended in a medium devoid of Gd-1 and raises to 3.7 in the following two hours of enzymatic hydrolysis. It can be therefore assumed that 80% of Gd-1 internalised particles have been solubilised by cellular esterases (FIG. 5).

U937 monocytes = experiment: Phagocytic uptake of Gd-1 particles on U937 monocytes differentiated with TPA; format: cell-based
Description: The phagocytic uptake of the Gd-1 particles was carried out on U937 monocytes previously treated for three days with TPA to induce cell differentiation. The size of the Gd-1 particles was determined by electron microscope observation and the measured diameter ranged from 0.5 to 10 μm. Most particles had diameter <10 μm, which is sufficiently small to allow the phagocytic process. The uptake was carried out at 37° C. and the cells were incubated with two different amounts of Gd-1 at subsequent times (1 to 12 hours). After incubation at 37° C. for several hours, the medium was removed and the cells were washed three times with 5 mL PBS. In these conditions, Gd-1 particles suspended in the medium are not solubilised; in fact, the relaxivity of the medium remains very close to that of pure water (0.45 s^−1). The amount of Gd(III) detected in the cells is directly proportional to incubation time and in 12 hours the saturation of the kinetic curve is not reached (FIG. 3). As expected, the amount of phagocyted Gd(III) is proportional to the amount of complex added to the culture medium at time zero. It is interesting to compare this behaviour with the water proton relaxation rate in the cytosolic extract. This was obtained by freezing three times the cells at −80° C. after completion of phagocytosis. […]

[3] = target: lipase from Chromobacterium viscosum [EC 3.1.1.34] (Pseudarthrobacter phenanthrenivorans, UniProt P0DUB9); experiment: In vitro evaluation of lipase activity on Gd-1 particles (turbidity, R1); format: biochemical; conditions: HEPES buffer 50 mM, pH=8, 310K
Description: as §1, §2, §3

Sequence of lipase from Chromobacterium viscosum [EC 3.1.1.34] (P0DUB9 whole entry): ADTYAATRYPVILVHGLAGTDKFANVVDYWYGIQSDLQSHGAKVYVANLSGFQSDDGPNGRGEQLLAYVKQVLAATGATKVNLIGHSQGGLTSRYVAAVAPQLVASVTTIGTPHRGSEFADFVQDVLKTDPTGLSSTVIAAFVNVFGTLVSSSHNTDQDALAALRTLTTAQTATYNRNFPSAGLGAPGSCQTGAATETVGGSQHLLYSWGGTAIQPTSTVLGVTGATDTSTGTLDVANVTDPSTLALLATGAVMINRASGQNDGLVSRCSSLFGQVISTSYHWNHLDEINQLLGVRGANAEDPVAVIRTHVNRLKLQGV

Structure (SMILES) | turbidity of the suspension in the presence of the enzyme ([1]; HEPES buffer 50 mM, pH=8, 310K) | time for R1 to reach the value expected for a soluble Gd(III) complex ([1]; esterase 2 mg) [h] | water protons relaxation rate (R1) in the absence of enzyme ([1]; no enzyme, 0.5T, 298K, not different from pure water) [s⁻¹] | content of Gd per mg protein (neutrophiles) [mol] | time for the enzymatic reaction to reach the steady state (macrophages esterase) | amount of Gd internalized (maximum value) (U937 cells) | fraction taken up by the cells (U937 cells) [%] | amount of complex internalised by the cells ([2]; about 2×10^6 cells, ca. 5 mg particles in 5 mL RPMI, 4 hours, 37° C.) | fraction of the internalised particles hydrolysed ([2]; after 4 hours incubation with particles) [%] | relaxivity of the cytosolic extract ([2]; after the following two hours of enzymatic hydrolysis) | fraction of internalised particles solubilised by cellular esterases ([2]; after two further hours of hydrolysis) [%] | relaxivity of the cytosolic extract ([2]; when cells are resuspended in a medium devoid of Gd-1) | relaxivity of the medium with suspended particles (U937 monocytes; culture medium, 37° C., particles not solubilised) [s⁻¹] | turbidity of the suspension in the presence of the enzyme [3] | presence of the complex in the cells (relaxation rate of water protons in the cytosolic extract) (U937 monocytes; soluble complex incubated in the same conditions as Gd-1 particles)
CCCCCCCCCCCCCCCCCC(=O)OCCOCCNC(=O)CN(CCN(CCN(CC(=O)O)CC(=O)NCCOCCOC(=O)CCCCCCCCCCCCCCCCC)CC(=O)O)CC(=O)O [Gd-1] | progressive decrease in turbidity | 2 to 3 | 0.38 | 8.8e-08 | about two | 2×10^−8 moles/mg of protein | ~10 | about 60 nmol | 50 | 3.7 | 80 | 2.5 | ~0.45 | progressive decrease in turbidity | 
CC(O)CN1CCN(CC(=O)[O-])CCN(CC(=O)[O-])CCN(CC(=O)[O-])CC1.[Gd+3] (stereo not drawn) [Gd-HPDO3A, reference compound] |  |  |  |  |  |  |  |  |  |  |  |  |  |  | complete absence
